Here are results for seven compounds from ChEMBL document CHEMBL4414655, “Position Effect of Fatty Acid Modification on the Cytotoxicity and Antimetastasis Potential of the Cytotoxic Peptide Lycosin-I” (J Med Chem, 2019).

Molecules are shown by their SMILES. Active and inactive are the calls of the source. The calls are words filed in the database; no cut-off is given here. Residues, ends and D or L forms follow the SMILES beside them. *: point of attachment. Lauroyl = CCCCCCCCCCCC(=O)*

The test system of one data set is HEK-293T. Description: Cytotoxicity in human HEK293T cells assessed as reduction in cell viability incubated for 24 hrs by CCK8 assay. The format is cell-based. Conditions: human, hek-293t. Background: Tetrazolium dyes change colour on reduction, which living cells bring about.
Data set [1] concerns A549. Description: Potency index, ratio of IC50 for lycosin-I to IC50 for test compound for cytotoxicity in human A549 cells assessed as reduction in cell viability at 0.78 to 50 uM incubated for 24 hrs by CCK8 assay. Type of data set: functional.
Data set [2] relates to A549. Description: Cytotoxicity in human A549 cells assessed as reduction in cell viability by trypan blue staining method. Type of data set: functional, cell-based.
Data set [3] concerns A549. Description: Cytotoxicity in human A549 cells assessed as reduction in cell viability incubated for 24 hrs by CCK8 assay. Type of data set: functional, cell-based. The following applies: A549, 24 h.
Data set [4] deals with A549. Description: Induction of cell membrane disruption in human A549 cells assessed as LDH release at 3.25 uM incubated for 30 mins by fluorescence based assay relative to control. On the technique in general: LDH leaks from cells whose membrane has failed.
The next data set is filed under the species Homo sapiens. In words: Induction of cell membrane disruption in human erythrocytes cells assessed as induction of hemolysis at 0.098 to 50 uM incubated for 1 hr by fluorescence based assay relative to control. Type of data set: cell membranes.
In another data set the test system is B16-F10. Description: Cytotoxicity in mouse B16/F10 cells assessed as reduction in cell viability incubated for 24 hrs by CCK8 assay. Type of data set: functional, cell-based. Conditions: B16-F10, 24 h.

As usually defined, the IC50 is the midpoint of a concentration-inhibition curve.

Consider `CCCCCCCCCCCC(=O)NCCCC[C@H](N)C(=O)NCC(=O)N[C@@H](Cc1c[nH]c2ccccc12)C(=O)N[C@@H](Cc1ccccc1)C(=O)N[C@@H](CCCCN)C(=O)N[C@@H](C)C(=O)N[C@@H](CCSC)C(=O)N[C@@H](CCCCN)C(=O)N[C@@H](CO)C(=O)N[C@H](C(=O)N[C@@H](C)C(=O)N[C@@H](CCCCN)C(=O)N[C@@H](Cc1ccccc1)C(=O)N[C@H](C(=O)N[C@@H](C)C(=O)N[C@@H](CCCCN)C(=O)N[C@@H](CCC(=O)O)C(=O)N[C@@H](CCCCN)C(=O)N[C@@H](CC(C)C)C(=O)N[C@@H](CCCCN)C(=O)N[C@@H](CCC(=O)O)C(=O)N[C@@H](Cc1cnc[nH]1)C(=O)N[C@@H](CC(C)C)C(=O)O)[C@@H](C)CC)[C@@H](C)CC` (H-K(Lauroyl)GWFKAMKSIAKFIAKEKLKEHL-OH), for which the Activity entry in the data set with HEK-293T is given as “Toxic”; with A549 [4], 51.3%. Moreover, the “Ratio IC50” value in the data set on A549 [1] is 4 - 15. For the same compound, the outcome in the data set with A549 [2] and in the data set filed under Homo sapiens was Active. Moreover, the IC50 in the data set with A549 [3] is 3.1 µM; in the data set with B16-F10, 2000 nM.

Turning to `CCCCCCCCCCCC(=O)NCCCC[C@H](NC(=O)[C@H](Cc1ccccc1)NC(=O)[C@H](Cc1c[nH]c2ccccc12)NC(=O)CNC(=O)[C@@H](N)CCCCN)C(=O)N[C@@H](C)C(=O)N[C@@H](CCSC)C(=O)N[C@@H](CCCCN)C(=O)N[C@@H](CO)C(=O)N[C@H](C(=O)N[C@@H](C)C(=O)N[C@@H](CCCCN)C(=O)N[C@@H](Cc1ccccc1)C(=O)N[C@H](C(=O)N[C@@H](C)C(=O)N[C@@H](CCCCN)C(=O)N[C@@H](CCC(=O)O)C(=O)N[C@@H](CCCCN)C(=O)N[C@@H](CC(C)C)C(=O)N[C@@H](CCCCN)C(=O)N[C@@H](CCC(=O)O)C(=O)N[C@@H](Cc1cnc[nH]1)C(=O)N[C@@H](CC(C)C)C(=O)O)[C@@H](C)CC)[C@@H](C)CC` (H-KGWFK(Lauroyl)AMKSIAKFIAKEKLKEHL-OH), the results for the Activity result in the data set with HEK-293T and in the data set with A549 [4] were “Toxic” and 23.1%, respectively. Also, the “Ratio IC50” value in the data set on A549 [1] is 4 - 15. The result with A549 [2] and in the data set listed under Homo sapiens was Active. Besides, the IC50 worked out at 7.7 µM with A549 [3] and 2000 nM with B16-F10.

As to `CCCCCCCCCCCC(=O)NCCCC[C@H](NC(=O)[C@H](CCSC)NC(=O)[C@H](C)NC(=O)[C@H](CCCCN)NC(=O)[C@H](Cc1ccccc1)NC(=O)[C@H](Cc1c[nH]c2ccccc12)NC(=O)CNC(=O)[C@@H](N)CCCCN)C(=O)N[C@@H](CO)C(=O)N[C@H](C(=O)N[C@@H](C)C(=O)N[C@@H](CCCCN)C(=O)N[C@@H](Cc1ccccc1)C(=O)N[C@H](C(=O)N[C@@H](C)C(=O)N[C@@H](CCCCN)C(=O)N[C@@H](CCC(=O)O)C(=O)N[C@@H](CCCCN)C(=O)N[C@@H](CC(C)C)C(=O)N[C@@H](CCCCN)C(=O)N[C@@H](CCC(=O)O)C(=O)N[C@@H](Cc1cnc[nH]1)C(=O)N[C@@H](CC(C)C)C(=O)O)[C@@H](C)CC)[C@@H](C)CC` (H-KGWFKAMK(Lauroyl)SIAKFIAKEKLKEHL-OH), the figures for the Activity entry in the data set on HEK-293T and in the data set with A549 [4] were “Toxic” and 25.7%, respectively. Also, the “Ratio IC50” value with A549 [1] is 4 - 15. Also, the result in the data set with A549 [2] and in the data set listed under Homo sapiens was Active. The IC50 in the data set with A549 [3] came out at 7.3 µM; in the data set with B16-F10 it was 2000 nM.

Regarding `CCCCCCCCCCCC(=O)NCCCC[C@H](NC(=O)[C@H](C)NC(=O)[C@@H](NC(=O)[C@H](CO)NC(=O)[C@H](CCCCN)NC(=O)[C@H](CCSC)NC(=O)[C@H](C)NC(=O)[C@H](CCCCN)NC(=O)[C@H](Cc1ccccc1)NC(=O)[C@H](Cc1c[nH]c2ccccc12)NC(=O)CNC(=O)[C@@H](N)CCCCN)[C@@H](C)CC)C(=O)N[C@@H](Cc1ccccc1)C(=O)N[C@H](C(=O)N[C@@H](C)C(=O)N[C@@H](CCCCN)C(=O)N[C@@H](CCC(=O)O)C(=O)N[C@@H](CCCCN)C(=O)N[C@@H](CC(C)C)C(=O)N[C@@H](CCCCN)C(=O)N[C@@H](CCC(=O)O)C(=O)N[C@@H](Cc1cnc[nH]1)C(=O)N[C@@H](CC(C)C)C(=O)O)[C@@H](C)CC` (H-KGWFKAMKSIAK(Lauroyl)FIAKEKLKEHL-OH), the Activity entry in the data set on HEK-293T is given as “Toxic”; in the data set on A549 [4], 38.5%. Besides, the “Ratio IC50” value in the data set with A549 [1] is reported as 4 - 15. Further, the result with A549 [2] and in the data set filed under Homo sapiens was Active. Moreover, the IC50 turned out to be 4.9 µM in the data set with A549 [3] and 2000 nM with B16-F10.

`CCCCCCCCCCCC(=O)NCCCC[C@H](NC(=O)[C@H](C)NC(=O)[C@@H](NC(=O)[C@H](Cc1ccccc1)NC(=O)[C@H](CCCCN)NC(=O)[C@H](C)NC(=O)[C@@H](NC(=O)[C@H](CO)NC(=O)[C@H](CCCCN)NC(=O)[C@H](CCSC)NC(=O)[C@H](C)NC(=O)[C@H](CCCCN)NC(=O)[C@H](Cc1ccccc1)NC(=O)[C@H](Cc1c[nH]c2ccccc12)NC(=O)CNC(=O)[C@@H](N)CCCCN)[C@@H](C)CC)[C@@H](C)CC)C(=O)N[C@@H](CCC(=O)O)C(=O)N[C@@H](CCCCN)C(=O)N[C@@H](CC(C)C)C(=O)N[C@@H](CCCCN)C(=O)N[C@@H](CCC(=O)O)C(=O)N[C@@H](Cc1cnc[nH]1)C(=O)N[C@@H](CC(C)C)C(=O)O` (H-KGWFKAMKSIAKFIAK(Lauroyl)EKLKEHL-OH): the Activity result is “Toxic” with HEK-293T and 34.6% in the data set on A549 [4]. For the same compound, the “Ratio IC50” value with A549 [1] was 4 - 15. The result in the data set with A549 [2] and in the data set listed under Homo sapiens was Active. For the same compound, the IC50 in the data set on A549 [3] came to 4.6 µM; in the data set on B16-F10, 2000 nM.

For the compound `CCCCCCCCCCCC(=O)NCCCC[C@H](NC(=O)[C@H](CCC(=O)O)NC(=O)[C@H](CCCCN)NC(=O)[C@H](C)NC(=O)[C@@H](NC(=O)[C@H](Cc1ccccc1)NC(=O)[C@H](CCCCN)NC(=O)[C@H](C)NC(=O)[C@@H](NC(=O)[C@H](CO)NC(=O)[C@H](CCCCN)NC(=O)[C@H](CCSC)NC(=O)[C@H](C)NC(=O)[C@H](CCCCN)NC(=O)[C@H](Cc1ccccc1)NC(=O)[C@H](Cc1c[nH]c2ccccc12)NC(=O)CNC(=O)[C@@H](N)CCCCN)[C@@H](C)CC)[C@@H](C)CC)C(=O)N[C@@H](CC(C)C)C(=O)N[C@@H](CCCCN)C(=O)N[C@@H](CCC(=O)O)C(=O)N[C@@H](Cc1cnc[nH]1)C(=O)N[C@@H](CC(C)C)C(=O)O` (H-KGWFKAMKSIAKFIAKEK(Lauroyl)LKEHL-OH), the Activity entry in the data set on HEK-293T is “Toxic”; in the data set on A549 [4], 40.2%. In addition, the “Ratio IC50” value with A549 [1] is on record as 4 - 15. Besides, the outcome with A549 [2] and in the data set filed under Homo sapiens was Active. Besides, the figures for the IC50 in the data set on A549 [3] and with B16-F10 were 5.1 µM and 2000 nM, respectively.

For the compound `CCCCCCCCCCCC(=O)NCCCC[C@H](NC(=O)[C@H](CC(C)C)NC(=O)[C@H](CCCCN)NC(=O)[C@H](CCC(=O)O)NC(=O)[C@H](CCCCN)NC(=O)[C@H](C)NC(=O)[C@@H](NC(=O)[C@H](Cc1ccccc1)NC(=O)[C@H](CCCCN)NC(=O)[C@H](C)NC(=O)[C@@H](NC(=O)[C@H](CO)NC(=O)[C@H](CCCCN)NC(=O)[C@H](CCSC)NC(=O)[C@H](C)NC(=O)[C@H](CCCCN)NC(=O)[C@H](Cc1ccccc1)NC(=O)[C@H](Cc1c[nH]c2ccccc12)NC(=O)CNC(=O)[C@@H](N)CCCCN)[C@@H](C)CC)[C@@H](C)CC)C(=O)N[C@@H](CCC(=O)O)C(=O)N[C@@H](Cc1cnc[nH]1)C(=O)N[C@@H](CC(C)C)C(=O)O` (H-KGWFKAMKSIAKFIAKEKLK(Lauroyl)EHL-OH), the Activity entry is recorded as “Toxic” in the data set on HEK-293T and 36.6% in the data set with A549 [4]. Moreover, the “Ratio IC50” value with A549 [1] is on record as 4 - 15. In addition, the outcome in the data set on A549 [2] and in the data set listed under Homo sapiens was Active. In addition, the IC50 was determined as 5 µM with A549 [3] and 2000 nM in the data set with B16-F10.
